Legend:
[1] = Compressibility Index (Flowability) by standard methods; type: physicochemical; conditions: crystalline powder
Procedure: (§1) Compressability Index, or in other words the Flowability of the two materials were determined by standard methods practiced in the art. The Particle Size Distribution was determined using a Mastersizer 2000, Version 2 instrument with cyclohexane as the dispersant.

[2] = Particle Size Distribution, Mastersizer 2000 with cyclohexane as the dispersant; type: physicochemical
Procedure: as §1

[3] = final printed label of ACEON Tablets, cited from earlier work

| Compressibility Index [1] | Particle Size Distribution (10%) [2] | Particle Size Distribution (50%) [2] | Particle Size Distribution (90%) [2] | SMILES | solubility in alcohol ([3]; alcohol) | solubility in chloroform ([3]; chloroform) | solubility in water ([3]; water) [% w/w] |
| --- | --- | --- | --- | --- | --- | --- | --- |
| 20.00 | 16.39μ (10%); | 70.18μ (50%); | 188.11μ (90%) | CCC[C@H](N[C@@H](C)C(=O)N1[C@H](C(=O)O)C[C@@H]2CCCC[C@@H]21)C(=O)OCC [Perindopril erbumine crystallized as per the method of U.S. ] |  |  |  |
| 23.8 | 9.06μ (10%); | 36.37μ (50%); | 119.78μ (90%) | CCC[C@H](N[C@@H](C)C(=O)N1[C@H](C(=O)O)C[C@@H]2CCCC[C@@H]21)C(=O)OCC [Perindopril erbumine crystallized as per the method of the p] |  |  |  |
|  |  |  |  | CCC[C@H](N[C@@H](C)C(=O)N1[C@H](C(=O)O)C[C@@H]2CCCC[C@@H]21)C(=O)OCC [perindopril erbumine] | freely soluble | freely soluble | 60 |

From patent publication US7456296B2, “Method for preparation of crystalline perindopril erbumine” (Lupin Ltd, priority 2003, dated 2008)
